Values quoted from earlier work in US20080057002A1, “Non-aqueous compositions containing urea and allantoin and methods for preparing same” (priority 2006, published 2008).

Details: expressed in g/100 g solvent @25 degree. C.

NC(=O)NC1NC(=O)NC1=O (stereo not drawn) [allantoin, (2,5-dioxo-4-imidazolidinyl) urea]
solubility of allantoin in ethanol (ethanol): < 0.1%
solubility of allantoin in propylene glycol (propylene glycol): < 0.1%
solubility of allantoin in water (water): 0.45%
